According to patent US20050238666A1, “Methods of enhancing stem cell engraftment” (priority 2003, published 2005):

Experiments:
[1] = system: hematopoietic progenitor cells; assay: Colony assay in methylcellulose (CFU) of transduced bone marrow progenitor cells; assay type: cell-based, mouse; details: expression of the transgene in the cells; FIG. 9
Protocol: Mouse Low Density Bone Marrow (LDBM) Isolation and Viral Transduction: Whole bone marrow was collected from C57B1/6 animals (Jackson Laboratory, Bar Harbor, Me.), 48 h after treatment with 5-fluorouracil (150 mg/kg of body weight, IP; American Pharmaceutical Partners, Los Angeles, Calif.) and was re-suspended in RPMI medium (Life Technologies, Inc.). Bone marrow cells were obtained from the animals, and low-density, mononuclear bone marrow (LDBM) cells are isolated from fresh bone marrow (BM) by density centrifugation on Histopaque-1083 (Sigma, […].) gradient for 20 min at 1,700 rpm at room temperature. Cells at the interface were collected and washed twice with Roswell Park Memorial Institute (RPMI) Media and then counted on a hemocytometer. […] Cells were subsequently analyzed and sorted for green fluorescence protein (GFP) using a Fluorescence Activated Cell Sorting (FACS) (Becton Dickinson, San Jose, Calif.). […]
The transduction efficiency of the cells was tested using the following assay: Colony assay: 2×10^4 cells re-suspended in 4 mL complete methylcellulose (Metho Cult™ GF M3434, Stem Cell Technologies) were plated in 35 mm grided non-tissue culture dishes (Nalge Nunc Int.) (1 mL/dish). The colonies were scored after 10 days incubation in 5% CO2 at 37° C. […]

hematopoietic stem cells = assay: In vivo transplantation and engraftment study (EGFP+ cells by FACS and CFU); design: species or system C57BL/6 mice
Protocol: FIG. 2 is a graphical representation of the experimental design showing the design for injecting mice with bone marrow cells. The peripheral blood (PB) cells were tested for EGFP+ cells by FACS analysis and the bone marrow (BM) cells were tested for EGFP+ cells by FACS analysis and by CFU assay.
4×10^5 cells were injected into C57BL/6 mice (8-10 weeks old). Prior to the transplant, the mice were irradiated with 11.75 Gy in split dose (7 Gy and 4.75 Gy) using a Cs^137 source with a minimum of 3 h between doses. For engraftment studies, 100 μL tail vein blood samples were withdrawn from each transplanted mouse every 4 weeks. Peripheral blood cells were incubated in red blood cell lysis buffer (Pharmingen, San Diego, Calif.) for […] at room temperature. Cells were then washed twice and re-suspended in 1 ml of PBS and 0.2% bovine serum albumin (BSA) (Roche Applied Sciences, Indianapolis, Ind.). The percentages of GFP^+ cells of each sample were analyzed by flow cytometry. Sixteen weeks post transplant bone marrow and spleen were isolated from the experimental animals. Cells isolated from these organs were incubated in red blood cells lysis buffer, re-suspended in PBS, 0.2% BSA and analyzed by flow cytometry, as described above.
The ability of hematopoietic progenitor cells to form colonies was analyzed in the presence of various transgenes expressing normal and mutated forms of GTPases. […]

Substance | ability of hematopoietic progenitor cells to form colonies [1] | engraftment: EGFP+ peripheral blood cells in transplanted animals (hematopoietic stem cells; 3, 7, 11 and 16 weeks post transplant, normalized to control cells at 3 weeks, FIG. 6) | stem cell (HSC) engraftment (hematopoietic stem cells; peripheral blood, bone marrow, spleen, CFU, secondary transplant, FIGS. 6, 8, 9 and 10)
RhoAN19: dominant negative mouse RhoA protein with threonine to asparagine point mutation at position 19, expressed from retroviral vector | not affected | advantageous | advantageous
Cdc42N17: dominant negative Cdc42 cDNA cloned into a murine stem cell virus-based bicistronic EGFP vector | not affected |  | 
